Consider 18 sequences from patent US20020165136A1, “MHC peptides and methods of use” (Thomas Jefferson University, priority 1996, published 2002).

Assay [1] relates to C6 cells. In words: In vivo apoptosis assay: peptide-pretreated C6 cells in a diffusion chamber implanted s.c. in rats. To be noted: for % Recovery (24 hs) / ability to induce apoptosis (in words) / Percent Recovery: C6 cells; for % Recovery (24 hs): peptide at 5×10^−M, 24 hs in diffusion chamber, % of original inoculum; for ability to induce apoptosis (in words): diffusion chamber, preincubation at 10^−5 M; for Percent Recovery: 24 hours in diffusion chamber; for Recovery (%): C6 rat glioblastoma cells pre-treated with 50 μM peptide 24 hours in serum-free medium, chamber in rats 24 hours. Also noted: species or system rat. How it is done:
(§1) The test for apoptosis in vivo was based on the use of the diffusion chamber described in detail by Resnicoff, M., et al., Cancer Res. 55: 2463-2469 (1995). According to this method, the cells are placed in a diffusion chamber that allows the passage of nutrients, antigens, antibodies, etc., but not of intact cells. The sterilized chamber is loaded with cells and then inserted into the subcutaneous tissue of rats or mice; after 24 hours, (or at other times, depending on the experiment) the chamber is removed and the number of cells in the chamber is determined with a hemocytometer, and expressed as a percentage of the original inoculum. The cells are also stained with trypan blue for viability; in the experience of the inventors, surviving cells are >95% viable.
(§2) For in vivo effects, 5×10^5 cells (C6 and CaOV-3 were both used for these studies) were placed in diffusion chambers and implanted into the s.c. tissue of the animals. Once the skin was sutured, the peptides were injected s.c. next to the chambers at the indicated concentrations in a final volume of 0.2 ml. Twenty-four hours later, the chambers were removed from the animals and the cells were quantitatively recovered.
(from gp100), involved in regression of human melanoma (Kawakami et al. 1994); 2) […], recognized by melanoma-specific human CTL lines (Cox et al, 1994); and 3) […], derived from connexin 37, that induces CTL responses against murine lung carcinoma (Mandelboim, et al., 1994). For each of these peptides, a control peptide having the same amino acid composition, but in scrambled order (controls), was also tested. C6 cells were preincubated with the peptides at a concentration of 10^−5M and transferred to the diffusion chamber (see Methods and Materials). Cell number was determined after 24 hours in the diffusion chamber transplanted into the subcutaneous tissue of rats.
Two of the three peptides were selected for further studies of the effects of mutations on the ability to induce apoptosis. Several point mutations were introduced into the peptide […]. […] Mutations at tyrosine in position 1, or the two prolines in positions 4 and 6, effectively inactivated peptide no. 2. An exception to this observation was seen when the prolines were replaced by an N-methyl amino acid. Mutations at E3 or T8 had little effect, but when both residues were mutated, recovery increased to 77%.
In order to determine the minimum concentration of these peptides that still would induce apoptosis in vivo, C6 cells were preincubated with different concentrations of the […] and D-amino acid […] peptides and recovery of viable cells was determined after 24 hours in the diffusion chamber.

Assay [2] deals with CaOV3 cells (human ovarian carcinoma cells). In words: Diffusion chamber assay, CaOV3 cells in mice, peptide injected s.c. next to chamber. The assay is classed as in vivo, mouse. To be noted: Balb/c mice, 0.2 ml of 0.05 mM peptide s.c. next to chamber, 24 hours. The procedure: as §1, §2
Human ovarian carcinoma cells CaOV3 (Resnicoff, et al. (1993)) were loaded into a diffusion chamber, and the chamber was inserted into the subcutaneous tissue of mice. The animals were then injected, also subcutaneously next to the chamber, with 0.2 ml of a 0.05 mM solution of four different peptides, and the number of cells was determined 24 hours later. […] The control peptide had no effect, and the number of cells more than doubled. CaOV3 cells also undergo apoptosis, as determined by FACS analysis.
CaOV3 cells (human ovarian carcinoma cells, 5×10^5 cells) were placed without any previous treatment into diffusion chambers that were then implanted into the subcutaneous tissue of Balb/c mice. Animals were then injected subcutaneously next to the chambers either with 0.2 ml of a 0.05 mM solution of one of the three test peptides or with 0.2 ml of a 0.05 mM solution of the control peptide.

The subject of assay [3] is C6 cells. In words: Protection from subsequent challenge with wild type C6 cells. It is filed as in vivo, rat. How it is done:
Synthetic peptide sequences listed above were tested at 5×10^−M on C6 cells. Tests for apoptosis and for protection from subsequent challenge with C6 cells are described herein. Point mutations are shown in bold characters.

Assay [4] concerns C6 cells. In words: FACS analysis of apoptotic cells in the diffusion chamber. Also noted: species or system rat. To be noted: C6 cells incubated in vivo for 90 minutes in diffusion chamber. How it is done:
In order to determine that the loss of cells upon treatment with active peptides was due to the induction of apoptosis, the presence of apoptotic cells within the diffusion chamber was determined at several time intervals by FACS analysis (Sell, et al. (1995)). FIG. 1 represents a typical experiment using C6 cells. […] In both cases, the cells had been incubated in vivo for 90 minutes in a diffusion chamber as described herein. […] Similar results were obtained at several time intervals thereafter.
(Flow cytometry measures light scatter and fluorescence of single cells or particles in a stream.)

The subject of assay [5] is C6 cells. In words: Tumorigenesis of C6 cells in nude mice. It is filed as in vivo. To be noted: peptide 0.1 ml s.c. at 10^−10 to 10^−12 M, simultaneously with and next to 10^5 C6 cells, nude mice. The procedure: C6 cells pre-incubated with various concentrations (10^−12, 10^−10, 10^−8, and 10^−5 M) of the peptide YLRPGPVTA were injected simultaneously into nude mice and the time of appearance of subcutaneous tumors was determined. In parallel experiments, the percentage of cells killed in the diffusion chamber assay was determined. From the percentage of cells killed, the expected delay in the appearance of tumors in mice was calculated as described previously (Resnicoff, et al., Cancer Res. 55:3739 (1995)). […] The time of appearance of tumors is slightly more delayed than expected from the percentage of cells killed in 24 hours in the diffusion chamber assay, a phenomenon previously observed also with antisense oligodeoxynucleotides to the IGF-IR RNA (Resnicoff, et al., Cancer Res. 55:3739 (1995)).
A similar inhibition of tumorigenesis was observed using the D-amino acid peptide LRLTATGDLL. In this case, the peptide (all D-aa, sequence from Kawakami, et al. (1994)) was injected s.c. into nude mice (0.1 ml, at the indicated concentrations), simultaneously with C6 cells (10^5 cells in 0.1 ml) and next to them. The animals were followed for tumor development. The results were as follows: For C6 cells without peptide injection, the tumors appeared after 4 days; for a peptide injection at 10^−10 to 10^−12 M, tumors appeared after 11 days.
C6 cells were incubated with the synthetic peptide at the indicated final concentrations for 24 hours in serum-free medium before injection into the subcutaneous tissue of seven week-old male Dalb/c nude mice. Percentage recovery was determined using the diffusion chamber assay as described herein. Expected Delay is the number of days after injection before the tumors should become palpable, based on survival in vivo estimated by percentage of cells recovered. […] Three nude mice were used in each experimental condition.

Square brackets hold non-standard residues; d marks the D form. Ends that are not written are not given here. NMeA = CN[C@@H](C)C(=O)O

In the case of YLEPGAVTA, the “% Recovery (24 hs)” value in the assay with C6 cells [1] is 260.0%. Further, the “Percent Recovery” value in assay [2] amounted to 280%. Further, the “Protection from wild type cell challenge” value in the assay with C6 cells [3] was “no”.

Take ALEPGPVTA [point mutant of …]: in the assay with C6 cells [1], the “% Recovery (24 hs)” value is recorded as 224.0%. For the same sequence, the “Protection from wild type cell challenge” value in the assay with C6 cells [3] is reported as “no”.

Take “SMAPGNYSV [control peptide, reference compound]”: the “apoptotic cells by FACS analysis” value with C6 cells [4] was “not”.

Turning to YLEPGPATA [point mutant of …], in the assay on C6 cells [1], the “% Recovery (24 hs)” value was determined as 11.0%. Moreover, the “Protection from wild type cell challenge” value in the assay on C6 cells [3] is “yes”.

On to YLEPAPVTA [point mutant of …], for which the “% Recovery (24 hs)” value in the assay with C6 cells [1] came out at 70.0%. In the assay with C6 cells [3], the “Protection from wild type cell challenge” value is listed as “no”.

YLAPGPVTA [point mutant of …]: the “% Recovery (24 hs)” value in the assay with C6 cells [1] worked out at 7.4%. The “Protection from wild type cell challenge” value in the assay with C6 cells [3] is “yes”.

YLEPGPVKA [point mutant of …]: the “% Recovery (24 hs)” value in the assay on C6 cells [1] was determined as 12.0%. The “Protection from wild type cell challenge” value in the assay on C6 cells [3] is “yes”.

Turning to “LRLTATGDLL (D-amino acids) [LRLTATGDLL (D-amino acid)]”, the “ability to induce apoptosis (in words)” value with C6 cells [1] is “as effective as the L-amino acid sequences”. Moreover, the “Percent Recovery” value in the assay with C6 cells [1] (peptide 10^−5 M) is 0.5%; in the assay with C6 cells [1] (peptide 10^−8 M), 3.0%; with C6 cells [1] (peptide 10^−12 M), 6.6%; with C6 cells [1] (peptide 10^−13 M, listed as LRLTATGDLL (D-aa)) it was 18.0%; in assay [2], 6.6%. Also, in the assay with C6 cells [1], the “% Recovery (24 hs)” value was found to be 4.9%. Further, in the assay on C6 cells [5], the “time of appearance of tumors” value is listed as 11 days. Moreover, in the assay on C6 cells [3], the “Protection from wild type cell challenge” value was “yes”.

“LLDGTATLRL [MHC Class I peptide derived from gp100, human melanoma specific antigen]”: in the assay on C6 cells [1], the “% Recovery (24 hs)” value worked out at 5.0%. Also, in the assay on C6 cells [3], the “Protection from wild type cell challenge” value is recorded as “yes”.

As for “YLEXGXVTA (X: N-Methyl-A) (YLE[NMeA]G[NMeA]VTA) [… with prolines replaced by an N-methyl amino acid]”, in the assay with C6 cells [1], the “% Recovery (24 hs)” value was found to be 6.5%. In the assay on C6 cells [3], the “Protection from wild type cell challenge” value was “yes”.

As for “YLRPGPVRA [double mutant (E3 and T8) of …]”, in the assay with C6 cells [1], the “% Recovery (24 hs)” value is 77.0%. The “Protection from wild type cell challenge” value with C6 cells [3] was “no”.

For “YLEPGPVTA [MHC Class I peptide recognized by melanoma-specific human CTL lines]”, in the assay on C6 cells [4], the “apoptotic cells by FACS analysis” value was “Apoptotic cells are detectable”. Also, the “% Recovery (24 hs)” value in the assay with C6 cells [1] came to 3.0%. In addition, the “Percent Recovery” value in assay [2] was found to be 0.2%. The “Protection from wild type cell challenge” value in the assay with C6 cells [3] is reported as “yes”.

Regarding “ATVPGPELY (D-amino acids) [ATVPGPELY (D-amino acid)]”, in the assay with C6 cells [1], the “ability to induce apoptosis (in words)” value is recorded as “as effective as the L-amino acid sequences” and the “% Recovery (24 hs)” value amounted to 6.0%. Further, the “Protection from wild type cell challenge” value with C6 cells [3] is on record as “yes”.

With “YMLDLQPETT [HPV-16 E711-20, MHC Class I peptide derived from Human Papilloma Virus Type 16 (HPV-16) E7 protein]”, the “Recovery (%)” value in the assay with C6 cells [1] turned out to be 13%.

On to YLEPGPVAA [point mutant of …], for which the “% Recovery (24 hs)” value in the assay on C6 cells [1] was determined as 9.3%. In the assay with C6 cells [3], the “Protection from wild type cell challenge” value is “yes”.

Take YLEAGPVTA [point mutant of …]: the “% Recovery (24 hs)” value in the assay with C6 cells [1] amounted to 224.0%. Moreover, the “Protection from wild type cell challenge” value in the assay on C6 cells [3] was “no”.

YAEPGPVTA [point mutant of …]: the “% Recovery (24 hs)” value in the assay with C6 cells [1] is 186.0%. Moreover, the “Protection from wild type cell challenge” value in the assay with C6 cells [3] is “no”.

Regarding “TLGIVCPI [HPV-16 E786-93, MHC Class I peptide derived from Human Papilloma Virus Type 16 (HPV-16) E7 protein]”, the “Recovery (%)” value in the assay on C6 cells [1] came out at 27%.
